Assay results from patent US20110098325A1, “PYRIDINE BENZAMIDES AND PYRAZINE BENZAMIDES USED AS PKD INHIBITORS” (CANCER RESEARCH TECHNOLOGY LIMITED, priority 2006, published 2011).

Target: T1, Murine PKD1 kinase domain (Mus musculus, UniProt Q62101)
T1 construct: hexahistidine (pFastBac HTb leader) (N); made in house; host or cells: Sf9 insect cells, baculovirus (Bac-to-Bac HT, pFastBac HTb)
T1 sequence (Q62101 with tags, fused parts or gaps R683W): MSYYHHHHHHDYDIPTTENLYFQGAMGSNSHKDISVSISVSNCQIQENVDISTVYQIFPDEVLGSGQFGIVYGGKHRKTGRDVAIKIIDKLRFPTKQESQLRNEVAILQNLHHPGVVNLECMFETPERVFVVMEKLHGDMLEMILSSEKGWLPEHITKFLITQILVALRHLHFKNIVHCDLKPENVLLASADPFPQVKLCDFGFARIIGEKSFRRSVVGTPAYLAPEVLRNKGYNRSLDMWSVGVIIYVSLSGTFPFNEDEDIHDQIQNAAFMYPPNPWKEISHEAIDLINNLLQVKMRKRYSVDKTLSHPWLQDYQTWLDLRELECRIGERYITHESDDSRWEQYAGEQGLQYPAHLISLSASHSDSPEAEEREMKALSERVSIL
Test: PKD1 (Murine Kinase Domain) Enzyme Activity Assay (IMAP fluorescence polarisation)
Type: biochemical
Conditions: 10 μM ATP, 60 minutes, room temperature
Description: The DNA sequence corresponding to murine PKD1 (see FIG. 1) was inserted into pFastBAc Htb (Invitrogen, USA) at BamH1 and EcoR1 sites using standard molecular biology techniques.
The PKD1 described above was expressed as a hexahistidine tagged protein construct using a commercially available baculoviral expression system that induces protein production in insect cell culture (Bac-to-Bac® HT Baculovirus Expression System, Invitrogen). Protein was typically expressed by inoculating 1 L of sf9 cells with a genetically modified baculovirus containing the gene for the kinase domain of PKD1. Sf9 cells were obtained from ICR Ltd.
Purification of PKD1 was achieved by standard chromatographic procedures. Capture from crude centrifuged lysed cell supernatant was achieved using metal affinity chromatography (GE Healthcare Life Sciences, HiTrap Chelating chromatography column), and fractions showing PKD1 (as assessed by gel electrophoresis and western blot) were further purified by a single polish purification step performed using a mono Q anion exchange chromatography system (GE Healthcare Life Sciences, HiTrap HP Q column). […] This protocol describes the method for screening compounds as inhibitors of Protein Kinase D activity in a 384 well microplate format fluorescence polarisation IMAP assay performed using the Biomek FX.
Kinase Enzyme: Murine PKD1 kinase domain at ˜100 μg/mL, was purified from baculovirus (as described above), obtained from aliquots stored at −70° C. PKD was prepared with a final concentration of 0.1 μg/mL by diluting 1:300 in Reaction Buffer (30 μL per 9 mL-5 mL per plate with an additional 4 mL dead volume) and vortexing prior to use. It was necessary to check this concentration regularly in case of enzyme degradation.
(also known as MAPKAP K2 substrate) was obtained from Molecular Devices (Product code R7127). It was used at 300 nM by diluting 20 μM stock 1:66 in Kinase/Reaction Buffer (135 μL per 9 mL; 75 μL per 5 mL Reaction Buffer for blank wells requiring <1 mL per place with an additional 4 mL dead volume).
A 1 mM ATP stock in Reaction Buffer was prepared from a 10 mM stock in 20 mM NaOH and stored as aliquots at −70° C. It was used at 40 μM by diluting 1 mM stock 1:25 in Reaction Buffer (240 μL per 6 mL-2 mL per plate with an additional 4 mL dead volume) and vortexing prior to use.
IMAP Reagents: IMAP Binding Reagent (product code R7207) and Binding Buffer (product code R7208) were obtained from Molecular Devices and stored at +4° C. The beads were gently re-suspended before diluting by 1:400 in buffer (Binding Buffer is supplied as a 5× stock and so was diluted with water prior to use) and then vortexing before addition to wells. 16 mL water with 4 mL Binding Buffer and 50 μL Binding Reagent were used per plate (17 mL per plate with an additional 3 mL dead volume).
13 μL Substrate in Reaction Buffer was added to ‘blank’ wells to give 200 nM reaction concentration. […] 2 μL 10% DMSO/water was added to ‘blank’ and ‘control’ wells. 5 μL ATP in Reaction Buffer was added to all wells to give 10 μM reaction concentration. The reaction mixture was then incubated at room temperature for 60 minutes. The incubation period was followed by the addition of 40 μL IMAP Binding Reagent in Binding Buffer to all wells. The reaction was then further incubated at room temperature for […].
Percentage inhibition was calculated based on activity of the test sample minus the average values in the blank wells relative to the average values measured in control wells minus the average values in the blank wells.
IC50 values were calculated from 10 point dose sigmoid ‘dose-response’ curves using Xlfit software (IDBS inc, USA). Data were fitted to a 4 parameter logistic model/sigmoidal dose response:
where: A=fit minimum (locked to 0); B=fit maximum (locked to 100); C=fit midpoint (pre-fit to 1); D=slope at linear portion of curve, hillslope (pre-fit to 0.1)

IC50 [µM] | Structure (SMILES)
< 1 | COc1ccc2cc(-c3nc(-c4cccc(C(=O)NCCN(C)C)c4)cnc3N)ccc2c1 [X-025, 3-[5-Amino-6-(6-methoxy-naphthalen-2-yl)-pyrazin-2-yl]-N-(2-dimethylamino-ethyl)-benzamide]
< 1 | COc1ccc(-c2cc(-c3cccc(C(=O)NCCN(C)C)c3)cnc2N)cc1F [Y-043, 3-[6-Amino-5-(3-fluoro-4-methoxy-phenyl)-pyridin-3-yl]-N-(2-dimethylamino-ethyl)-benzamide]
< 1 | COc1ccc2cc(-c3cc(-c4cccc(C(=O)NCCN(C)C)c4)cnc3N)ccc2c1 [Y-087, 3-[6-Amino-5-(6-methoxy-naphthalen-2-yl)-pyridin-3-yl]-N-(2-dimethylamino-ethyl)-benzamide]
1 to 10 | COCc1cccc(-c2cc(-c3cccc(C(=O)NCCN(C)C)c3)cnc2N)c1 [Y-047, 3-[6-Amino-5-(3-methoxymethyl-phenyl)-pyridin-3-yl]-N-(2-dimethylamino-ethyl)-benzamide]
< 1 | COc1ccc(-c2cc(-c3cccc(C(=O)NCCN(C)C)c3)cnc2N)cc1OC [Y-035, 3-[6-Amino-5-(3,4-dimethoxy-phenyl)-pyridin-3-yl]-N-(2-dimethylamino-ethyl)-benzamide]
1 to 10 | CCOc1cccc(-c2cc(-c3cccc(C(=O)NCCN(C)C)c3)cnc2N)c1 [Y-073, 3-[6-Amino-5-(3-ethoxy-phenyl)-pyridin-3-yl]-N-(2-dimethylamino-ethyl)-benzamide]
< 1 | COc1cc(OC)cc(-c2cc(-c3cccc(C(=O)NCCN(C)C)c3)cnc2N)c1 [Y-081, 3-[6-Amino-5-(3,5-dimethoxy-phenyl)-pyridin-3-yl]-N-(2-dimethylamino-ethyl)-benzamide]
< 1 | Cc1ccc(-c2cc(-c3cccc(C(=O)NCCN(C)C)c3)cnc2N)cc1F [Y-044, 3-[6-Amino-5-(3-fluoro-4-methyl-phenyl)-pyridin-3-yl]-N-(2-dimethylamino-ethyl)-benzamide]
< 1 | CN(C)CCNC(=O)c1cccc(-c2cnc(N)c(-c3ccc(F)c(F)c3)c2)c1 [Y-033, 3-[6-Amino-5-(3,4-difluoro-phenyl)-pyridin-3-yl]-N-(2-dimethylamino-ethyl)-benzamide]
< 1 | CCSc1ccc(-c2cc(-c3cccc(C(=O)NCCN(C)C)c3)cnc2N)cc1 [Y-053, 3-[6-Amino-5-(4-ethylsulfanyl-phenyl)-pyridin-3-yl]-N-(2-dimethylamino-ethyl)-benzamide]
< 1 | CN(C)CCNC(=O)c1cccc(-c2cnc(N)c(-c3cccc(O)c3)c2)c1 [Y-077, 3-[6-Amino-5-(3-hydroxy-phenyl)-pyridin-3-yl]-N-(2-dimethylamino-ethyl)-benzamide]

The remaining lines, values behind:

Structure (SMILES) | IC50 [µM]
CCN(CC)CCNC(=O)c1cccc(-c2cnc(N)c(-c3cccc(OC)c3)c2)c1 [Y-096, 3-[6-Amino-5-(3-methoxy-phenyl)-pyridin-3-yl]-N-(2-diethylamino-ethyl)-benzamide] | < 1
CN(C)CCNC(=O)c1cccc(-c2cnc(N)c(-c3ccc4c(c3)OCO4)c2)c1 [Y-010, 3-(6-Amino-5-benzo[1,3]dioxol-5-yl-pyridin-3-yl)-N-(2-dimethylamino-ethyl)-benzamide] | < 1
CN(C)CCNC(=O)c1cccc(-c2cnc(N)c(-c3ccc(C(C)(C)C)cc3)c2)c1 [Y-068, 3-[6-Amino-5-(4-tert-butyl-phenyl)-pyridin-3-yl]-N-(2-dimethylamino-ethyl)-benzamide] | < 1
CN(C)CCCNC(=O)c1cccc(-c2cncc(-c3ccc(O)cc3)n2)c1 [X-004, N-(3-Dimethylamino-propyl)-3-[6-(4-hydroxy-phenyl)-pyrazin-2-yl]-benzamide] | < 1
CN(C)CCNC(=O)c1cccc(-c2cncc(-c3ccc(CO)cc3)n2)c1 [X-005, N-(2-Dimethylamino-ethyl)-3-[6-(4-hydroxymethyl-phenyl)-pyrazin-2-yl]-benzamide] | < 1
CN(C)CCNC(=O)c1cccc(-c2cnc(N)c(-c3ccoc3)c2)c1 [Y-017, 3-(6-Amino-5-furan-3-yl-pyridin-3-yl)-N-(2-dimethylamino-ethyl)-benzamide] | < 1
CN(C)CCNC(=O)c1cccc(-c2cnc(N)c(-c3cc(Cl)cc(Cl)c3)c2)c1 [Y-037, 3-[6-Amino-5-(3,5-dichloro-phenyl)-pyridin-3-yl]-N-(2-dimethylamino-ethyl)-benzamide] | < 1
COc1ccc(-c2cc(-c3cccc(C(N)=O)c3)cnc2N)cc1OC [Y-034, 3-[6-Amino-5-(3,4-dimethoxy-phenyl)-pyridin-3-yl]-benzamide] | 1 to 10
CN(C)CCNC(=O)c1cccc(-c2cnc(N)c(-c3ccnc(Cl)c3)c2)c1 [Y-085, 3-(2-Amino-2′-chloro-[3,4′]bipyridinyl-5-yl)-N-(2-dimethylamino-ethyl)-benzamide] | < 1
CN(C)CCNC(=O)c1cccc(-c2cnc(N)c(-c3cccc(CC#N)c3)c2)c1 [Y-080, 3-[6-Amino-5-(3-cyanomethyl-phenyl)-pyridin-3-yl]-N-(2-dimethylamino-ethyl)-benzamide] | < 1
COc1cc(-c2cncc(-c3cccc(C(=O)NCCN)c3)n2)ccc1O [X-021, N-(2-Amino-ethyl)-3-[6-(4-hydroxy-3-methoxy-phenyl)-pyrazin-2-yl]-benzamide] | < 1
CN(C)CCNC(=O)c1cccc(-c2cnc(N)c(-c3ccc(O)nc3)c2)c1 [Y-007, 3-(2-Amino-6′-hydroxy-[3,3′]bipyridinyl-5-yl)-N-(2-dimethylamino-ethyl)-benzamide] | < 1
CN(C)CCNC(=O)c1cccc(-c2cnc(N)c(-c3cccc(OC(F)(F)F)c3)c2)c1 [Y-050, 3-[6-Amino-5-(3-trifluoromethoxy-phenyl)-pyridin-3-yl]-N-(2-dimethylamino-ethyl)-benzamide] | < 1
NC(=O)c1cccc(-c2cnc(N)c(-c3cccc4ncccc34)c2)c1 [Y-021, 3-(6-Amino-5-quinolin-5-yl-pyridin-3-yl)-benzamide] | 1 to 10
CN(C)CCNC(=O)c1cccc(-c2cnc(N)c(-c3cccc(OCc4ccccc4)c3)c2)c1 [Y-038, 3-[6-Amino-5-(3-benzyloxy-phenyl)-pyridin-3-yl]-N-(2-dimethylamino-ethyl)-benzamide] | < 1
COc1ncc(-c2cc(-c3cccc(C(=O)NCCN(C)C)c3)cnc2N)c(OC)n1 [Y-029, 3-[6-Amino-5-(2,4-dimethoxy-pyrimidin-5-yl)-pyridin-3-yl]-N-(2-dimethylamino-ethyl)-benzamide] | < 1
CN(C)CCNC(=O)c1cccc(-c2cnc(N)c(-c3ccc4c(c3)CCO4)c2)c1 [Y-028, 3-[6-Amino-5-(2,3-dihydro-benzofuran-5-yl)-pyridin-3-yl]-N-(2-dimethylamino-ethyl)-benzamide] | < 1
CN(C)CCNC(=O)c1cccc(-c2cnc(N)c(-c3cccc4c3oc3ccccc34)n2)c1 [X-012, 3-(5-Amino-6-dibenzofuran-4-yl-pyrazin-2-yl)-N-(2-dimethylamino-ethyl)-benzamide] | < 1
